Assay results taken from patent publication US11896573B2, “Pharmaceutical compositions and pharmacokinetics of a gamma-hydroxybutyric acid derivative” (priority 2020, dated 2024).
Read-outs that look alike come from different tables or passages of the source.

Test: Multiple ascending dose study, plasma pharmacokinetics of Compound (1) and GHB
Assay type: in vivo, human
Details: for AUC(0-inf) / AUC(0-t) / Cmax / half-life / Tmax: human, plasma, oral; for Tmax: read-out: Compound (1) plasma Tmax, Median
Experimental: The plasma concentrations of Compound (1) and GHB in plasma in healthy human subjects were measured using liquid chromatography tandem mass-spectroscopy and evaluated using PHOENIX™ WINNONLIN® version 8.1 (Pharsight Corporation, USA) and MICROSOFT® EXCEL® (Microsoft Corporation, USA).
All randomized subjects who received Compound (1), with available pharmacokinetic (PK) data and without relevant deviations interfering with the PK evaluations, were included. Subjects who received only placebo were excluded from the PK population. In addition, the PK population was used for the summaries and analyses of all PK data.
A multiple ascending dose study was undertaken to evaluate the pharmacokinetics of multiple doses of Compound (1) in 3 cohorts of healthy subjects (with 8 subjects/cohort). Within each cohort, the subjects were randomized to receive Compound (1) or placebo at a ratio of 6:2 (active: placebo) for 7 days (or up to 9 days if the cohort included a titration period).
After fasting for at least 3 hours following a standard meal, subjects were randomized on Day 1 and the first dose of study drug (either target dose or titration dose) was administered. The first cohort of subjects (Cohort 8) received the second dose administration at approximately four hours after receiving the first dose. The subsequent […] cohorts (Cohorts 9 and 10) received only one dose per day.
For the first cohort (Cohort 8), the dose used was 6.0 g divided into two equal doses four hours apart for 7 days starting from Day 4 “Dose Day 1” to Day 10 “Dose Day 7”. Subsequent Cohorts 9, 10 received a single daily dose of 4.5 g and 6.0 g during the titration period (Day 1 for Cohort 9, Day 1 and Day 2 for Cohort 10, and after a titration period for 7 days starting from Day 4 “Dose Day 1” to Day 10 “Dose Day 7”. Cohort 11 was not conducted due to API availability.

[1] = Cohort 10 (6.0 g/day in a single dose), Dosing Day 10

In the case of CC(C)[C@H](N)C(=O)OCCCC(=O)O [Compound (1), 4-((L-valyl)oxy)butanoic acid], the “Compound (1) plasma Tmax, Min” value (Cohort 10 (6.0 g/day in a single dose), Dosing Day 4) is reported as 19.8 min, the “Compound (1) CL/F, Max” value [1] is reported as 575 L/h and the “Compound (1) CL/F, Mean” value [1] is reported as 395 L/h. For the same molecule, the “Compound (1) CL/F, Median” value [1] was 354 L/h, the “Compound (1) CL/F, Min” value [1] was 284 L/h and the “Compound (1) plasma AUC0-inf, Max” value [1] was 21100 ng·h/mL. The “Compound (1) plasma AUC0-inf, Min” value [1] was 10400 ng·h/mL, the “Compound (1) plasma AUC0-tlast, Max” value [1] was 21100 ng·h/mL and the “Compound (1) plasma AUC0-tlast, Min” value [1] was 10400 ng·h/mL. The “Compound (1) plasma Cmax, Max” value [1] was 24500 ng/mL, the “Compound (1) plasma Cmax, Min” value [1] was 11700 ng/mL and the “Compound (1) plasma T1/2, Max” value [1] was 31.2 min. For the same molecule, the “Compound (1) plasma T1/2, Min” value [1] was 17.4 min, the AUC(0-inf) (4.5 g/day, Cohort 9 (4.5 g/day in a single dose), Dosing Day 4, read-out: Compound (1) plasma AUC0-inf, Mean) was 12000 ng·h/mL and the AUC(0-inf) (4.5 g/day, Cohort 9 (4.5 g/day in a single dose), Dosing Day 4, read-out: Compound (1) plasma AUC0-inf, Median) was 11800 ng·h/mL. It also gave an AUC(0-t) (4.5 g/day, Cohort 9 (4.5 g/day in a single dose), Dosing Day 4, read-out: Compound (1) plasma AUC0-tlast, Mean) of 11300 ng·h/mL, an AUC(0-t) (4.5 g/day, Cohort 9 (4.5 g/day in a single dose), Dosing Day 4, read-out: Compound (1) plasma AUC0-tlast, Median) of 11700 ng·h/mL and a Cmax (4.5 g/day, Cohort 9 (4.5 g/day in a single dose), Dosing Day 4, read-out: Compound (1) plasma Cmax, Mean) of 15600 ng/mL. The Cmax (4.5 g/day, Cohort 9 (4.5 g/day in a single dose), Dosing Day 4, read-out: Compound (1) plasma Cmax, Median) was 16800 ng/mL, the half-life (4.5 g/day, Cohort 9 (4.5 g/day in a single dose), Dosing Day 4, read-out: Compound (1) plasma T1/2, Mean (converted)) was 29.4 min and the half-life (4.5 g/day, Cohort 9 (4.5 g/day in a single dose), Dosing Day 4, read-out: Compound (1) plasma T1/2, Median (converted)) was 32.4 min. The AUC(0-inf) (4.5 g/day, Cohort 9 (4.5 g/day in a single dose), Dosing Day 10, read-out: Compound (1) plasma AUC0-inf, Mean) was 10800 ng·h/mL, the AUC(0-inf) (4.5 g/day, Cohort 9 (4.5 g/day in a single dose), Dosing Day 10, read-out: Compound (1) plasma AUC0-inf, Median) was 10200 ng·h/mL and the AUC(0-t) (4.5 g/day, Cohort 9 (4.5 g/day in a single dose), Dosing Day 10, read-out: Compound (1) plasma AUC0-tlast, Mean) was 10700 ng·h/mL. For the same molecule, the AUC(0-t) (4.5 g/day, Cohort 9 (4.5 g/day in a single dose), Dosing Day 10, read-out: Compound (1) plasma AUC0-tlast, Median) was 10100 ng·h/mL, the Cmax (4.5 g/day, Cohort 9 (4.5 g/day in a single dose), Dosing Day 10, read-out: Compound (1) plasma Cmax, Mean) was 14800 ng/mL and the Cmax (4.5 g/day, Cohort 9 (4.5 g/day in a single dose), Dosing Day 10, read-out: Compound (1) plasma Cmax, Median) was 15900 ng/mL. It also gave a half-life (4.5 g/day, Cohort 9 (4.5 g/day in a single dose), Dosing Day 10, read-out: Compound (1) plasma T1/2, Mean (converted)) of 33.6 min, a half-life (4.5 g/day, Cohort 9 (4.5 g/day in a single dose), Dosing Day 10, read-out: Compound (1) plasma T1/2, Median (converted)) of 33.6 min and an AUC(0-inf) (6 g/day, Cohort 8 (6.0 g/day divided into equal 2 doses), Dosing Day 4, read-out: Compound (1) plasma AUC0-inf, Mean) of 14500 ng·h/mL. It also gave an AUC(0-inf) (6 g/day, Cohort 8 (6.0 g/day divided into equal 2 doses), Dosing Day 4, read-out: Compound (1) plasma AUC0-inf, Median) of 14800 ng·h/mL, an AUC(0-t) (6 g/day, Cohort 8 (6.0 g/day divided into equal 2 doses), Dosing Day 4, read-out: Compound (1) plasma AUC0-tlast, Mean) of 14400 ng·h/mL and an AUC(0-t) (6 g/day, Cohort 8 (6.0 g/day divided into equal 2 doses), Dosing Day 4, read-out: Compound (1) plasma AUC0-tlast, Median) of 14800 ng·h/mL. It also gave a Cmax (6 g/day, Cohort 8 (6.0 g/day divided into equal 2 doses), Dosing Day 4, read-out: Compound (1) plasma Cmax, Mean) of 12100 ng/mL, a Cmax (6 g/day, Cohort 8 (6.0 g/day divided into equal 2 doses), Dosing Day 4, read-out: Compound (1) plasma Cmax, Median) of 11500 ng/mL and a half-life (6 g/day, Cohort 8 (6.0 g/day divided into equal 2 doses), Dosing Day 4, read-out: Compound (1) plasma T1/2, Mean (converted)) of 31.8 min. It also gave a half-life (6 g/day, Cohort 8 (6.0 g/day divided into equal 2 doses), Dosing Day 4, read-out: Compound (1) plasma T1/2, Median (converted)) of 16.2 min, an AUC(0-inf) (6 g/day, Cohort 8 (6.0 g/day divided into equal 2 doses), Dosing Day 10, read-out: Compound (1) plasma AUC0-inf, Mean) of 14900 ng·h/mL and an AUC(0-inf) (6 g/day, Cohort 8 (6.0 g/day divided into equal 2 doses), Dosing Day 10, read-out: Compound (1) plasma AUC0-inf, Median) of 14100 ng·h/mL. The AUC(0-t) (6 g/day, Cohort 8 (6.0 g/day divided into equal 2 doses), Dosing Day 10, read-out: Compound (1) plasma AUC0-tlast, Mean) was 14800 ng·h/mL, the AUC(0-t) (6 g/day, Cohort 8 (6.0 g/day divided into equal 2 doses), Dosing Day 10, read-out: Compound (1) plasma AUC0-tlast, Median) was 14100 ng·h/mL and the Cmax (6 g/day, Cohort 8 (6.0 g/day divided into equal 2 doses), Dosing Day 10, read-out: Compound (1) plasma Cmax, Mean) was 11500 ng/mL. It also gave a Cmax (6 g/day, Cohort 8 (6.0 g/day divided into equal 2 doses), Dosing Day 10, read-out: Compound (1) plasma Cmax, Median) of 11300 ng/mL, a half-life (6 g/day, Cohort 8 (6.0 g/day divided into equal 2 doses), Dosing Day 10, read-out: Compound (1) plasma T1/2, Mean (converted)) of 20.4 min and a half-life (6 g/day, Cohort 8 (6.0 g/day divided into equal 2 doses), Dosing Day 10, read-out: Compound (1) plasma T1/2, Median (converted)) of 16.8 min. The AUC(0-inf) (6 g/day, Cohort 10 (6.0 g/day in a single dose), Dosing Day 4, read-out: Compound (1) plasma AUC0-inf, Mean) was 17200 ng·h/mL, the AUC(0-inf) (6 g/day, Cohort 10 (6.0 g/day in a single dose), Dosing Day 4, read-out: Compound (1) plasma AUC0-inf, Median) was 19000 ng·h/mL and the AUC(0-t) (6 g/day, Cohort 10 (6.0 g/day in a single dose), Dosing Day 4, read-out: Compound (1) plasma AUC0-tlast, Mean) was 17100 ng·h/mL. The AUC(0-t) (6 g/day, Cohort 10 (6.0 g/day in a single dose), Dosing Day 4, read-out: Compound (1) plasma AUC0-tlast, Median) was 18900 ng·h/mL, the Cmax (6 g/day, Cohort 10 (6.0 g/day in a single dose), Dosing Day 4, read-out: Compound (1) plasma Cmax, Mean) was 21300 ng/mL and the Cmax (6 g/day, Cohort 10 (6.0 g/day in a single dose), Dosing Day 4, read-out: Compound (1) plasma Cmax, Median) was 23500 ng/mL. It also gave a half-life (6 g/day, Cohort 10 (6.0 g/day in a single dose), Dosing Day 4, read-out: Compound (1) plasma T1/2, Mean (converted)) of 24.6 min, a half-life (6 g/day, Cohort 10 (6.0 g/day in a single dose), Dosing Day 4, read-out: Compound (1) plasma T1/2, Median (converted)) of 24 min and an AUC(0-inf) (6 g/day, Cohort 10 (6.0 g/day in a single dose), Dosing Day 10, read-out: Compound (1) plasma AUC0-inf, Mean) of 16400 ng·h/mL. The AUC(0-inf) (6 g/day, Cohort 10 (6.0 g/day in a single dose), Dosing Day 10, read-out: Compound (1) plasma AUC0-inf, Median) was 16900 ng·h/mL, the AUC(0-t) (6 g/day, Cohort 10 (6.0 g/day in a single dose), Dosing Day 10, read-out: Compound (1) plasma AUC0-tlast, Mean) was 16300 ng·h/mL and the AUC(0-t) (6 g/day, Cohort 10 (6.0 g/day in a single dose), Dosing Day 10, read-out: Compound (1) plasma AUC0-tlast, Median) was 16800 ng·h/mL. It also gave a Cmax (6 g/day, Cohort 10 (6.0 g/day in a single dose), Dosing Day 10, read-out: Compound (1) plasma Cmax, Mean) of 18900 ng/mL, a Cmax (6 g/day, Cohort 10 (6.0 g/day in a single dose), Dosing Day 10, read-out: Compound (1) plasma Cmax, Median) of 20000 ng/mL and a half-life (6 g/day, Cohort 10 (6.0 g/day in a single dose), Dosing Day 10, read-out: Compound (1) plasma T1/2, Mean (converted)) of 21.6 min. The half-life (6 g/day, Cohort 10 (6.0 g/day in a single dose), Dosing Day 10, read-out: Compound (1) plasma T1/2, Median (converted)) was 21 min, the Tmax (Cohort 8 (6.0 g/day divided into equal 2 doses), Dosing Day 4) was 30 min and the Tmax (Cohort 9 (4.5 g/day in a single dose), Dosing Day 4) was 30 min.
